These results are taken from patent publication US4159328A, “Tetrahydro-1,3,5-thiadiazin-4-one derivative” (Nihon Nohyaku Co., Ltd., priority 1977, dated 1979).

In one data set the test system is larvae of brown planthopper (Nilaparvata lugens Stahl). Kind of data set: Test Example 1: insecticidal activity against larvae of brown planthopper. The format is in vivo. The settings on record: 168 h, third-instar larvae, 25° C., 7 days after treatment. A digest of the protocol:
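Rice seedlings at 1.5-leaf stage were dipped for 30 s in a 400 ppm test composition, air-dried, and infested with third-instar N. lugens larvae. After holding at 25 °C, mortality was scored 5 or 7 days post-treatment from three replicates.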
Broadly, the mortality is the share of the test organisms that died. Molecule `CC(C)N1C(=O)N(C(C)(C)C)CSC1=NC(C)(C)CC(C)(C)C` [Compound 48] gave a mortality at 400 ppm of 100%.
On the same count and under the same terms, as for `CCCN1CSC(=NC(C)C)N(C(C)C)C1=O` [Compound 14], the figure is 80%.
In turn, `CCCCCCCCN1CSC(=NC(C)C)N(C)C1=O` [Compound 65] yielded a mortality at 400 ppm of 100%.
The same measure, in the same setting: the result for `CCCN=C1SCN(C(C)(C)C)C(=O)N1C` [Compound 32] reads 100%; that for `CC(C)N=C1SCN(C)C(=O)N1C(C)C` [Compound 2, 2-Isopropylimino-3-isopropyl-5-methyl-tetrahydro-1,3,5-thiadiazin-4-one], 100%; that for `Cc1ccc(N=C2SCN(C(C)(C)C)C(=O)N2C)cc1` [Compound 72, 2-p-Tolylimino-3-methyl-5-t-butyl-tetrahydro-1,3,5-thiadiazin-4-one], 80%.
Same read-out and setting: as for `CC(C)N=C1SCN(C(C)(C)C)C(=O)N1c1ccccc1` [Compound 75], the figure is 100%.
Same read-out and setting: the result for `CN1C(=O)N(C(C)(C)C)CSC1=NC(C)(C)C` [Compound 37] reads 100%.
In turn, `CCN=C1SCN(C(C)C)C(=O)N1CC` [Compound 23] yielded a mortality at 400 ppm of 100%.
Still for that read-out and setting: as for `CN1C(=O)N(C2CCCCC2)CSC1=NC(C)(C)C` [Compound 53], the figure is 80%; as for `CCC(C)N1CSC(=NC(C)C)N(C)C1=O` (stereo not drawn) [Compound 29], 100%; as for `CN=C1SCN(C(C)(C)C)C(=O)N1c1ccc(F)cc1` [Compound 71], 80%.

For a further data set, the system named is larvae of white-backed planthopper (Sogatella furcifera Horvath). Kind of data set: Test Example 2: insecticidal activity against larvae of white-backed planthopper. The format is in vivo. The following applies: 168 h, 400 ppm, first-instar larvae, 25° C., seven days after treatment, read-out: Mortality. As to the method:
Insecticidal activity against larvae of white-backed planthopper (Sogatella furcifera Horvath).
Testing method: Five rice seedlings of the 1.5 leaf age were dipped in a test composition of 400 ppm concentration for 30 seconds. After air-drying, the seedlings were placed in a glass tube containing 1 ml of water and infested with five first-instar larvae of white-backed planthopper. The glass tube was left standing in a constant temperature cabinet at 25° C. and seven days after the treatment, dead-and-survival was observed. Mortality was calculated from the results of 3-replication test.
On to `CC(C)N1C(=O)N(C(C)(C)C)CSC1=NC(C)(C)CC(C)(C)C` [Compound 48], for which the mortality at 400 ppm was 100%.
For `CCCN1CSC(=NC(C)C)N(C(C)C)C1=O` [Compound 14], the mortality at 400 ppm stood at 100%.
With `CCCCCCCCN1CSC(=NC(C)C)N(C)C1=O` [Compound 65], the mortality at 400 ppm was 100%.
As to `CCCN=C1SCN(C(C)(C)C)C(=O)N1C` [Compound 32], the mortality at 400 ppm was found to be 100%.
With `CC(C)N=C1SCN(C)C(=O)N1C(C)C` [Compound 2, 2-Isopropylimino-3-isopropyl-5-methyl-tetrahydro-1,3,5-thiadiazin-4-one], the mortality at 400 ppm was determined as 100%.
The same measure, in the same setting: the result for `Cc1ccc(N=C2SCN(C(C)(C)C)C(=O)N2C)cc1` [Compound 72, 2-p-Tolylimino-3-methyl-5-t-butyl-tetrahydro-1,3,5-thiadiazin-4-one] reads 100%; that for `CC(C)N=C1SCN(C(C)(C)C)C(=O)N1c1ccccc1` [Compound 75], 100%; that for `CN1C(=O)N(C(C)(C)C)CSC1=NC(C)(C)C` [Compound 37], 100%.
With `CCN=C1SCN(C(C)C)C(=O)N1CC` [Compound 23], the mortality at 400 ppm was found to be 100%.
The same measure, in the same setting: the result for `CN1C(=O)N(C2CCCCC2)CSC1=NC(C)(C)C` [Compound 53] reads 80%; that for `CCC(C)N1CSC(=NC(C)C)N(C)C1=O` (stereo not drawn) [Compound 29], 100%.
The same measure, in the same setting: as for `CN=C1SCN(C(C)(C)C)C(=O)N1c1ccc(F)cc1` [Compound 71], the figure is 80%.

Another data set relates to two-spotted spider mite (Tetranychus urticae Koch). Kind of data set: Test Example 3: activity to two-spotted spider mite. Format: in vivo. The following applies: 48 h, 1,000 ppm, 2 days after treatment. The source says:
Activity to two-spotted spider mite (Tetranychus urticae Koch).
Testing method: Two-spotted spider mites were set free on the pot-planted soybean in a greenhouse. On the next day, a test composition of 1,000 ppm concentration was sprayed over the soybean by means of a spray gun. Two days or five days after the treatment, dead-and-survival was inspected to calculate the mortality.
As to `CC(C)N1C(=O)N(C(C)(C)C)CSC1=NC(C)(C)CC(C)(C)C` [Compound 48], the mortality at 1000 ppm is 100%.
Molecule `CCCN1CSC(=NC(C)C)N(C(C)C)C1=O` [Compound 14] yielded a mortality at 1000 ppm of 100%.
The same measure, in the same setting: as for `CCCCCCCCN1CSC(=NC(C)C)N(C)C1=O` [Compound 65], the figure is 100%; as for `CCCN=C1SCN(C(C)(C)C)C(=O)N1C` [Compound 32], 100%; as for `CC(C)N=C1SCN(C)C(=O)N1C(C)C` [Compound 2, 2-Isopropylimino-3-isopropyl-5-methyl-tetrahydro-1,3,5-thiadiazin-4-one], 100%.
On the same count and under the same terms, as for `Cc1ccc(N=C2SCN(C(C)(C)C)C(=O)N2C)cc1` [Compound 72, 2-p-Tolylimino-3-methyl-5-t-butyl-tetrahydro-1,3,5-thiadiazin-4-one], the figure is 100%; as for `CC(C)N=C1SCN(C(C)(C)C)C(=O)N1c1ccccc1` [Compound 75], 80%; as for `CN1C(=O)N(C(C)(C)C)CSC1=NC(C)(C)C` [Compound 37], 100%.
In the case of `CCN=C1SCN(C(C)C)C(=O)N1CC` [Compound 23], the mortality at 1000 ppm amounted to 100%.
Regarding `CN1C(=O)N(C2CCCCC2)CSC1=NC(C)(C)C` [Compound 53], the mortality at 1000 ppm came to 100%.
Still for that read-out and setting: the result for `CCC(C)N1CSC(=NC(C)C)N(C)C1=O` (stereo not drawn) [Compound 29] reads 100%.
On the same count and under the same terms, the result for `CN=C1SCN(C(C)(C)C)C(=O)N1c1ccc(F)cc1` [Compound 71] reads 100%.

The subject of a further data set is cirrus red mite (Panonychus citri McGregor). Briefly: Test Example 4: activity to citrus red mite (Rothamstead method). On the set-up: concentration or dose not given beside the values. Format: in vivo. The following applies: two days after treatment, 25° C.; 2880 min. As to the method: Activity to cirrus red mite (Panonychus citri McGregor).
Testing method: The test was performed by Rothamstead method. A test composition was sprayed by means of a spray gun over grapefruit leaves infested with citrus red mites. After air-drying the grapefruit was left standing in a constant temperature cabinet at 25° C. Two days after the treatment, the number of survived mites was counted to calculate the mortality.
In turn, `CC(C)N1C(=O)N(C(C)(C)C)CSC1=NC(C)(C)CC(C)(C)C` [Compound 48] came in with a Mortality of 100%.
Same read-out and setting: the result for `CCCN1CSC(=NC(C)C)N(C(C)C)C1=O` [Compound 14] reads 50%; that for `CCCCCCCCN1CSC(=NC(C)C)N(C)C1=O` [Compound 65], 100%; that for `CCCN=C1SCN(C(C)(C)C)C(=O)N1C` [Compound 32], 100%.
Still for that read-out and setting: the result for `CC(C)N=C1SCN(C)C(=O)N1C(C)C` [Compound 2, 2-Isopropylimino-3-isopropyl-5-methyl-tetrahydro-1,3,5-thiadiazin-4-one] reads 50%.
`Cc1ccc(N=C2SCN(C(C)(C)C)C(=O)N2C)cc1` [Compound 72, 2-p-Tolylimino-3-methyl-5-t-butyl-tetrahydro-1,3,5-thiadiazin-4-one] came in with a Mortality of 80%.
On the same count and under the same terms, the result for `CC(C)N=C1SCN(C(C)(C)C)C(=O)N1c1ccccc1` [Compound 75] reads 50%; that for `CN1C(=O)N(C(C)(C)C)CSC1=NC(C)(C)C` [Compound 37], 100%; that for `CCN=C1SCN(C(C)C)C(=O)N1CC` [Compound 23], 80%.
Same read-out and setting: as for `CN1C(=O)N(C2CCCCC2)CSC1=NC(C)(C)C` [Compound 53], the figure is 100%.
In turn, `CCC(C)N1CSC(=NC(C)C)N(C)C1=O` (stereo not drawn) [Compound 29] displayed a Mortality of 100%.
In turn, `CN=C1SCN(C(C)(C)C)C(=O)N1c1ccc(F)cc1` [Compound 71] returned a Mortality of 50%.

In a further data set the test system is larvae of green rice leafhopper (Nephotettix cincticeps Uhler). Briefly: Test Example 5: activity against larvae of green rice leafhopper. The format is in vivo. The following applies: 168 h, 400 ppm, second-instar larvae, 25° C., seven days after treatment, read-out: Mortality. The method in brief: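 Rice seedlings at 1.5 leaf age dipped 30 seconds in 400 ppm test composition, air-dried, then infested with five second-instar larvae. Kept at 25° C; mortality scored seven days after treatment, three replicates.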
Take `CC(C)N1C(=O)N(C(C)(C)C)CSC1=NC(C)(C)CC(C)(C)C` [Compound 48]: the mortality at 400 ppm came to 80%.
The same measure, in the same setting: as for `CCCN1CSC(=NC(C)C)N(C(C)C)C1=O` [Compound 14], the figure is 100%.
With `CCCCCCCCN1CSC(=NC(C)C)N(C)C1=O` [Compound 65], the mortality at 400 ppm came to 50%.
On the same count and under the same terms, the result for `CCCN=C1SCN(C(C)(C)C)C(=O)N1C` [Compound 32] reads 50%; that for `CC(C)N=C1SCN(C)C(=O)N1C(C)C` [Compound 2, 2-Isopropylimino-3-isopropyl-5-methyl-tetrahydro-1,3,5-thiadiazin-4-one], 50%; that for `Cc1ccc(N=C2SCN(C(C)(C)C)C(=O)N2C)cc1` [Compound 72, 2-p-Tolylimino-3-methyl-5-t-butyl-tetrahydro-1,3,5-thiadiazin-4-one], 80%.
Same read-out and setting: the result for `CC(C)N=C1SCN(C(C)(C)C)C(=O)N1c1ccccc1` [Compound 75] reads 50%; that for `CN1C(=O)N(C(C)(C)C)CSC1=NC(C)(C)C` [Compound 37], 50%; that for `CCN=C1SCN(C(C)C)C(=O)N1CC` [Compound 23], 80%.
Still for that read-out and setting: as for `CN1C(=O)N(C2CCCCC2)CSC1=NC(C)(C)C` [Compound 53], the figure is 50%; as for `CCC(C)N1CSC(=NC(C)C)N(C)C1=O` (stereo not drawn) [Compound 29], 80%.
On to `CN=C1SCN(C(C)(C)C)C(=O)N1c1ccc(F)cc1` [Compound 71], for which the mortality at 400 ppm came to 50%.
